Where a name gives a salt, the structure may show the parent alone.
Columns and labels:
[1] = system: LPS septic shock in WT mice; test: LPS septic shock model; type: in vivo, mouse
Protocol: FIGS. 1A-L. Fumarate inhibits pyroptosis. Bone marrow-derived macrophages (BMDMs) were treated as indicated and LDH, IL-1β or TNF-α measured by ELISA (A-C), GSDMD/β-actin by immunoblotting (D) or permeabilization of cells to SYTOX orange (E-F). GSDMD oligomerization in native and reduced cell lysates treated as above (G). Timecourse of permeabilization to SYTOX orange or GSDMD-N formation in cells treated as indicated (H-I). Survival rates of WT mice after 50 mg/kg of LPS (n−10) or LPS+fumarate (n=9) (J). Levels of IL-1β or TNF-α from serum of WT mice at 5 hours post-intraperitoneal injection with 5 mg/kg LPS (n=6) or control PBS (n=3) (K, L). A, B, C, I and are pooled from three independent experiments. D, E, F, G, H and I are representative from three independent experiments. J, K, L data points indicate individual mice. *, P<0.05, **, P<0.01; ***, P<0.001; ****, P<0.0001) (J, Mantel Cox survival analysis; A-C, K Two-way ANOVA). Error bars show means±SEM.
FIGS. 8A-B. Fumarate inhibits pyroptosis in vivo. (A-B) LC/MS Fumarate quantification in splenocytes (A) and IL-1 ELISA analysis (B) in serum from WT C57/BL6 mice administered FHIN2 (50 mg/kg) by IP injection followed by LPS (10 mg/kg) by IP injection for 5 hours. Data points indicative of individual mice. **, P<0.01 (Two-way ANOVA). Error bars show means±SEM.
Conditioned media or serum was collected as indicated and IL-1β or TNF-α, were quantified by sandwich ELISA (R&D Systems).
Mice aged 8-12 weeks were administered LPS 5 mg/kg by intraperitoneal injection. Serum was collected after 5 h for ELISA analysis. For survival studies, mice were administered LPS 50 mg/kg intraperitoneally and monitored every 12 h for up to 96 h.

recombinant GSDMD = target: T1, recombinant GSDMD (Homo sapiens, UniProt P57764); test: MMF-Yne labelling of recombinant GSDMD competed by fumarate, intact MS; type: binding; conditions: 1 μM GSDMD
T1 sequence (P57764 1-484): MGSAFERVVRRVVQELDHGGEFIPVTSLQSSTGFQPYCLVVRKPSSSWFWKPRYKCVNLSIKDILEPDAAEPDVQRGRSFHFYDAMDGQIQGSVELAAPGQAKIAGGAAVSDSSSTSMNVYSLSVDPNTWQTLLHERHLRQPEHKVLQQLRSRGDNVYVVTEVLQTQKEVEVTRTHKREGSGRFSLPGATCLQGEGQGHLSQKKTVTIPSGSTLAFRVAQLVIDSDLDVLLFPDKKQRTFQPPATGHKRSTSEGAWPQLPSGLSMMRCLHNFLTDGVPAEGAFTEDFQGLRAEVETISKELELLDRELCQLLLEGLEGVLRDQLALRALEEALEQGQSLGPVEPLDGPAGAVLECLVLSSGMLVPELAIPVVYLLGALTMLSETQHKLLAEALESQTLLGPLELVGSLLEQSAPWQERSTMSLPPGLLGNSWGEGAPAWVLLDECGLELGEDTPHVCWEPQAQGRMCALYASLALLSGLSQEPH
Protocol: FIGS. 11A-E. Fumarate binds to GSDMD. (A) Immunoblot analysis of MMF-Yne bound proteins using a streptavidin-IR dye. (B) Representative MS spectra of GSDMD identified in streptavidin pulldowns subjected to mass spec. (C-D) Immunoblot analysis (C) and densitometry analysis (D) of streptavidin-IR dye detecting MMF-Yne labelled recombinant GSDMD incubated with the indicated concentrations of fumarate and copper clicked using a biotin-azide. (E) Intact MS analysis of recombinant GSDMD (1 μM) incubated in a succination reaction with DMSO (vehicle) or fumarate (25 μM) for 2 hours. A-E Representative images from 2 independent experiments..
Intact mass analysis of GSDMD protein was carried out using an Acquity UPLC (Waters Corporation, Milford, Mass.) coupled to a Synapt G2-Si (Waters) quadrupole time-of-flight mass spectrometer fitted with an electrospray ionization source. Liquid chromatography was carried out with a 3.0×50 mm(4 μm) MAbPac RP column (Thermo Scientific, Waltham, Mass.) using mobile phase A and B containing 0.1% (v/v) formic acid in water, and 0.1% (v/v) formic acid in acetonitrile, respectively. A total of 0.6 μg sample was injected and the protein eluted using a linear gradient of 10 to 70% B over 7.0 minutes at a flow rate of 0.3 ml/min. […]

COC(=O)/C=C/C(=O)OC [Fumarate, Dimethyl fumarate]
serum IL-1β levels ([1]; 5 hours after ip LPS 5 mg/kg): reduced | serum TNF-α levels ([1]; 5 hours after ip LPS 5 mg/kg): not | survival ([1]; lethal dose LPS 50 mg/kg, single dose of fumarate): increased survival | concentration at which maximum occupancy of GSDMD was achieved (recombinant GSDMD): 25 µM
